Tests used:
GlgA [1] = target: T1, GlgA (Mycobacterium tuberculosis, UniProt P9WMZ1); assay type: biochemical
T1 construct: gene glgM

GlgA [2] = target: T1, GlgA; assay type: biochemical; remark: listed apart in the source
GlgA [3] = target: T1, GlgA; assay: biochemical
GlgP = GlgP (Mycobacterium tuberculosis, UniProt P9WMW1); assay type: biochemical

Compound: Nc1ncnc2c1ncn2[C@@H]1O[C@H](COP(=O)(O)OP(=O)(O)O)[C@@H](O)[C@H]1O [ADP]
- MS of reaction products; coupled assay of ADP release (GlgA [1]): The next most abundant ion is consistent with the presence of the co-product, ADP

Compound: O=P(O)(O)O[C@H]1O[C@H](CO)[C@@H](O[C@H]2O[C@H](CO)[C@@H](O)[C@H](O)[C@H]2O)[C@H](O)[C@H]1O [M1P, α-maltose 1-phosphate]
- 1H NMR and high resolution MS of the enzyme reaction product (GlgA [2]): Recombinant M. tuberculosis GlgA converts ADP-glucose and G1P to M1P.

Compound: O=P(O)(O)O[C@H]1O[C@H](CO)[C@@H](O)[C@H](O)[C@H]1O [G1P, glucose 1-phosphate]
- Ki (GlgA [3]): 895 ± 60 µM
- 1H NMR of glycogen phosphorolysis by recombinant enzyme (GlgP): recombinant M. tuberculosis GlgP was only capable of forming G1P from glycogen and inorganic phosphate
